Data from the pKa sets of Baltruschat and Czodrowski (2020).

| pKa | SMILES |
| --- | --- |
| 4.1 | O=C(Nc1cccc2cnccc12)c1ccc(-c2ccccc2)cc1 |
| 4.42 | O=c1[nH]c2c(Cc3nn[n-]n3)c3ccccc3n2c2ccccc12 |
| 4.1 | O=C([O-])c1ccc(-c2nc(-c3cccc(C(F)(F)F)c3)cs2)cc1 |
| 4.7 | Cc1nc2ccccn2c1C(=O)NCc1ccc(-c2ccccc2)cc1 |
| 7.9 | C[NH+](CCC(=O)N1CCN(c2ccc(F)c(F)c2)CC1)CCC1c2ccccc2Oc2ccccc21 |
| 3.38 | CC(C)N(CCCCOCC(=O)[O-])c1cnc(-c2ccccc2)c(-c2ccccc2)n1 |
| 8.77 | O=C(NCC[NH+]1CCC(n2c(=O)[nH]c3cc(F)ccc32)CC1)c1ccc(F)cc1 |
| 3.41 | COc1cccc(OC)c1-c1ccc(C[C@H](NC(=O)c2c(Cl)cccc2Cl)C(=O)[O-])cc1 |
| 9.3 | CC(C)(C)Cn1c(Cc2ccc(NS(N)(=O)=O)cc2)cc2cnc(C#N)nc21 |
| 7.5 | O=c1cc(CSc2cccc(F)c2F)nc2cc(-c3ccco3)[nH]n12 |
| 3.86 | Cc1c(CC(=O)[O-])c2cccnc2n1S(=O)(=O)c1ccc(Cl)cc1 |
| 8.25 | COc1cc(C(C)O)ccc1OCCC[NH+]1CCC(c2noc3cc(F)ccc23)CC1 (centres undefined) |
| 9.01 | CC(C)[NH+](CCc1c(C(C)(C)O)[nH]c2ccccc12)Cc1ccc(CCC(=O)N=O)cc1 |
| 5.2 | Cc1nc(-n2ccc([O-])cc2=O)sc1C(=O)NCc1ccccc1 |
| 9.3 | O=C1NC(=O)C(c2c[nH]c3ccccc23)=C1c1nc(N2CCOCC2)nc2ccccc12 |
| 7.1 | COc1ccc(OC)c(CNc2ccc3nc(N)nc(N)c3c2Cl)c1 |
| 4.6 | OCCn1cc(-c2cnc3nnn(Cc4ccc5ncccc5c4)c3n2)cn1 |
| 3.5 | CN1c2ccc(C#N)cc2N=C(c2ccc(C(=O)[O-])cc2)c2cc3c(cc21)C(C)(C)CCC3(C)C |

Continued, compound first:

| SMILES | pKa |
| --- | --- |
| CC(=O)N1CCN(c2ccc(OCc3cc4cnc(C#N)nc4n3CCC3CCCCC3)cc2)CC1 | 3.3 |
| CS(=O)(=O)Nn1c(=O)[nH]c2cc(C(F)(F)F)c(N)cc2c1=O | 8.6 |
| COc1ccc(SC)c2c1C[C@@H]1[C@@H](C2)OCC[NH+]1C | 6.25 |
| CCOC(=O)c1c(C)cc2nc(COC(=O)NCCO)n(-c3ccccc3S(=O)(=O)NC)c(=O)c2c1C | 10.6 |
| C/C(=C\c1ccc(C)cn1)[C@@H]1C[C@@H]2O[C@]2(C)CCC[C@H](C)[C@H](O)[C@@H](C)C(=O)C(C)(C)[C@@H](O)CC(=O)O1 | 4.5 |
| CCOc1ccc2nc(S(N)(=O)=O)sc2c1 | 8.36 |
| Clc1ccc(OCc2nn[n-]n2)c(C2CCCCC2)c1 | 3.87 |
| NS(=O)(=O)Oc1ccc2nc(C=C3C4CC5CC(C4)CC3C5)oc2c1 | 8.26 |
| CC(C)N(CCCCOCC(=O)NS(C)(=O)=O)c1cnc(-c2ccccc2)c(-c2ccccc2)n1 | 3.37 |
| CC/C(=C(\c1ccccc1)c1ccc(/C=C/C(=O)[O-])cc1)c1ccccc1 | 4.26 |
| NC1=[NH+]c2ccccc2CC1 | 9.55 |
| CC1CCCN(C(=O)c2ccc(Nc3ccc(Cl)cc3)nc2)C1 (centres undefined) | 3.4 |
| Cc1ccc(Nc2ncc(C(=O)N3CCCCC3)cc2Cl)cn1 | 5.2 |
| O=NC(=O)CCc1ccc(C[NH+]2CCC(c3c[nH]c4ccccc34)CC2)cc1 | 8.55 |
| O=C([O-])c1ccc(-c2ccccc2)cc1 | 3.9 |
| N#Cc1ncc2cc(COc3ccc(C(=O)[O-])cc3)n(CCC3CCCCC3)c2n1 | 4.2 |
